The results in this text go back to patent US20240344241A1, “PROTEINACEOUS MOLECULES AND USES THEREFOR” (THE UNIVERSITY OF QUEENSLAND, priority 2021, published 2024).

Bridge positions count the residues as written; N and C are the ends. Peptide text beside a SMILES is read from it.

Experiment [1] has as its target T1, Human β-FXIIa (Homo sapiens, UniProt P00748).
T1 construct: Human β-FXIIa was obtained from Molecular Innovations, together with human FXa, human FXIa, human α-thrombin, and human plasma kallikrein; purchased Molecular Innovations; host or cells: purified from human plasma
As to the kind of experiment: FXIIa competitive inhibition assay, colorimetric substrate Ac-QRFR-pNA. Type of experiment: biochemical. The method in brief: (§1)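 Competitive inhibition: serially diluted inhibitors were pre-incubated with enzyme at room temperature to equilibrium in 0.1 M Tris-HCl pH 8.0, 0.1 M NaCl, 10 mM CaCl2, 0.005% Triton X-100. Substrate hydrolysis was followed by pNA absorbance (405 nm) or MCA fluorescence (ex 360/em 460 nm); Morrison Ki by non-linear regression.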

Experiment [2] has as its target T2, bovine trypsin (Bos taurus, UniProt P00760).
T2 sequence (P00760 24-246): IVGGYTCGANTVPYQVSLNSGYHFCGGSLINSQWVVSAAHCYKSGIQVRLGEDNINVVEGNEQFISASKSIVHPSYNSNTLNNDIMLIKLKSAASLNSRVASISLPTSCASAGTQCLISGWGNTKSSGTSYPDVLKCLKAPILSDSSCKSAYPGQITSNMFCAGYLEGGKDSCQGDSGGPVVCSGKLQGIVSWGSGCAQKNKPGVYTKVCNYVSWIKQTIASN
The experiment in a line: Surface plasmon resonance binding to trypsin.

Experiment [3] addresses T3, Human plasma kallikrein (Homo sapiens, UniProt P03952).
T3 construct: Human β-FXIIa was obtained from Molecular Innovations, together with human FXa, human FXIa, human α-thrombin, and human plasma kallikrein; purchased Molecular Innovations; host or cells: purified from human plasma
As to the kind of experiment: Plasma kallikrein inhibition assay. Type of experiment: biochemical. As for the experimental part: The activity of acyclic and cyclic MCoFx1-5 and analogues thereof was assessed in competitive inhibition assays, as previously described in Swedberg et al. (2016) J Med Chem, 59: 7287-7292. Human β-FXIIa was obtained from Molecular Innovations, together with human FXa, human FXIa, human α-thrombin, and human plasma kallikrein. Human cationic trypsin and human plasmin were obtained from Sigma-Aldrich, and recombinant human matriptase was sourced from R&D Systems. Recombinant human urokinase (uPA) and recombinant human tissue plasminogen activator (tPA) were expressed in Expi293 cells, as previously described in Li et al. (2019) Chembiochem, 20: 46-50. FXIIa inhibition assays were performed in clear, low-binding 96-well plates using 250 μL (final volume) of assay buffer (0.1 M Tris-HCl pH 8.0, 0.1 M NaCl, 10 mM CaCl2 and 0.005% Triton X-100). Inhibitors were serially diluted and incubated with 10 nM FXIIa at room temperature to reach equilibrium. After adding 100 μM Ac-QRFR-pNA substrate (KM=162 μM), enzymatic activity was measured by monitoring release of the pNA moiety using a TECAN infinite M1000 Pro plate reader (A=405 nm, reading interval, 10 s; assay time course, 7 min). Assays were conducted in three times in duplicate. Substrate kinetic constants (Michaelis-Menten) and inhibition constants (Morrison K) were determined by non-linear regression using Prism 7 (GraphPad). Selectivity assays with off-target proteases were performed in a similar way, except that different concentrations of enzyme and substrate were used, as indicated in Table 16. For assays using a fluorescent substrate (peptide-4-methylcoumaryl-7-amide, MCA), black low-binding 96-well plates were used and activity was measured using a TECAN infinite M1000 pro plate reader (λex 360 nm, λem 460 nm, reading interval, 30 s; assay time course, 5-30 min).

Experiment [4] has as its target T4, Rec. human matriptase (Homo sapiens, UniProt Q9Y5Y6).
T4 construct: purchased R&D Systems
T4 sequence (Q9Y5Y6 615-855 limits assumed): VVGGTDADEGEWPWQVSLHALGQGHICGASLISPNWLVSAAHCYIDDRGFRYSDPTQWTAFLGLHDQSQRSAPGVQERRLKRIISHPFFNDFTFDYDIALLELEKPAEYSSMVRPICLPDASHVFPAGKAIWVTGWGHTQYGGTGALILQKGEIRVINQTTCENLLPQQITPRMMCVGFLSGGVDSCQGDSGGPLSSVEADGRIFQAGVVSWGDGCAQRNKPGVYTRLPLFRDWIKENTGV
As to the kind of experiment: Matriptase inhibition assay. Type of experiment: biochemical. Conditions: Table 10; read-out: Ki Matriptase. Summed up:
as §1

Experiment [5] deals with clotting via the extrinsic pathway. The experiment in a line: Prothrombin time (PT) assay in human plasma. Type of experiment: biochemical. Conditions: at 10 μM. The text has this: Citrated, platelet-poor plasma samples from healthy adults were collected, prepared, and stored using previously established collection protocols, such as in Zdenek et al. (2019) Toxicol in Vitro, 58: 97-109.
Standard coagulation assays were used to determine the effect of the inhibitors on the clotting time of human plasma. Activated partial thromboplastin time (aPTT) uses a Kaolin reagent (clay) to activate the intrinsic/contact pathway of the coagulation cascade, whereas prothrombin time (PT) uses Neoplastine (lyophilized thromboplastin prepared from rabbit cerebral tissue) to activate the extrinsic/tissue-factor pathway of the coagulation cascade. A minor adjustment was made to both tests (addition of 25 μL inhibitor or buffer; refer to Table 17) to accommodate the addition of an inhibitor without changing the total volume (and therefore relative ratios of additives) of the assay. Concentrations of inhibitor are reported as the concentration at the point of incubation in the assay, i.e. not taking into account the addition of the start reagent (calcium for aPTT, or Neoplastine for PT).
Clotting time (seconds) of plasma was automatically measured using a STA-R Max® analyzer (Stago, Asnieres sur Seine, France). Measurements were conducted using a viscosity-based (mechanical) detection system, whereby opposing magnets oscillate a small metal spherical pellet inside the test cuvette (250 μL total volume) until a clot is formed. Dilution of the inhibitor in Owren-Koller (OK) buffer for dose-response curves was performed automatically by the machine. Reagents were kept at 15-19° C. in the machine during experimentation and otherwise stored at 4° C. All tests were performed in triplicate.

T1 sequence (P00748 373-615 limits assumed, other chains not shown): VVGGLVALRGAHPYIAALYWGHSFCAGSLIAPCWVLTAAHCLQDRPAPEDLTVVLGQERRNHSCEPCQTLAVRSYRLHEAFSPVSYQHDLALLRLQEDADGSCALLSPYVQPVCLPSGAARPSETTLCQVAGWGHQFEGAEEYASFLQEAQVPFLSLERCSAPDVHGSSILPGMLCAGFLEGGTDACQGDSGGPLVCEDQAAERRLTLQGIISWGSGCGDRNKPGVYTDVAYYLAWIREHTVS
T3 sequence (P03952 391-638 limits assumed): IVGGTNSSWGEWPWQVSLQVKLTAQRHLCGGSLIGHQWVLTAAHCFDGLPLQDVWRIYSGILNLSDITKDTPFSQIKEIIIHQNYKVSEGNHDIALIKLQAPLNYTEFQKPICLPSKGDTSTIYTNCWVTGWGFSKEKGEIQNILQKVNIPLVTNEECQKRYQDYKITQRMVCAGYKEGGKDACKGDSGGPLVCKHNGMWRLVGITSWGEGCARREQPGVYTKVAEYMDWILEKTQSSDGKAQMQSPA
T3 sequence (P03952 20-390 partner limits assumed): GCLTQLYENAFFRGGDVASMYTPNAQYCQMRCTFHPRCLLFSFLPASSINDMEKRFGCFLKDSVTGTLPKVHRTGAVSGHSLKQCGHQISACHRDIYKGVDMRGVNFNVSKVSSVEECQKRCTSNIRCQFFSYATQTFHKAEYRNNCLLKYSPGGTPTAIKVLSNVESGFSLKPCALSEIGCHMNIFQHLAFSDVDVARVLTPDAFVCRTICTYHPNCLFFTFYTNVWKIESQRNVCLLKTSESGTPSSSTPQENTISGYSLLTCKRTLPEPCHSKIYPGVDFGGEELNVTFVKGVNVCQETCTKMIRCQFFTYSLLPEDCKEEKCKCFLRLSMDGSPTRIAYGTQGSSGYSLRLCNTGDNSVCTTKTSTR

Turning to `CC[C@H](C)[C@@H]1NC(=O)CNC(=O)CNC(=O)[C@H](CC(=O)O)NC(=O)[C@H](Cc2ccc(O)cc2)NC(=O)CNC(=O)[C@H](CO)NC(=O)CNC(=O)[C@@H]2CSSC[C@@H]3NC(=O)[C@H](CC(=O)O)NC(=O)[C@H](CO)NC(=O)[C@H](CC(=O)O)NC(=O)[C@H](CCCNC(=N)N)NC(=O)[C@H](CCCNC(=N)N)NC(=O)[C@@H]4CSSC[C@H](NC(=O)[C@H]([C@@H](C)CC)NC(=O)[C@H](CSSC[C@H](NC1=O)C(=O)N1CCC[C@H]1C(=O)N[C@@H](CCCNC(=N)N)C(=O)N[C@@H]([C@@H](C)CC)C(=O)NCC(=O)N[C@@H](CCCNC(=N)N)C(=O)N[C@@H](CC(C)C)C(=O)N4)NC(=O)[C@H](C)NC(=O)CNC(=O)[C@@H]1CCCN1C3=O)C(=O)N[C@@H](CCCNC(=N)N)C(=O)N[C@@H](C)C(=O)N[C@@H]([C@@H](C)O)C(=O)N[C@@H](CCCNC(=N)N)C(=O)N[C@@H](Cc1ccccc1)C(=O)N2` [MCoFx1 cyclic] (cyclo(ACICRATRFCGSGYDGGICPRIGRLCRRDSDCPG); disulfide 2-19, 4-26, 10-32), the Ki was 0.37 ± 0.04 nM in experiment [1] (Table 7, FXIIa, cyclic form of the peptide, read-out: Ki (nM) Cyclic) and 9120 nM in experiment [4]. In addition, the “fold more potent than MCoTI-II (FXIIa Ki)” value in experiment [1] (ratio of Ki values) was 350 fold. In addition, the “difference in Ki FXIIa versus trypsin” value in experiment [1] (selectivity) is “exceeds three orders of magnitude”. The Kd in experiment [2] (Table 8, cyclic form, read-out: KD (nM) Trypsin Cyclic) was determined as 31.5 nM. The “fold lower affinity for trypsin compared with MCoTI-II” value in experiment [2] (ratio of KD values) stood at 300 fold. In experiment [3] (at 5 μM, read-out: percent inhibition Plasma kallikrein), the inhibition at 5 µM came out at 0%. Moreover, the IC50 in experiment [3] (read-out: IC50 Plasma kallikrein) is over 5000 nM. Further, in experiment [5], the “clotting time compared to control, PT assay” value is given as “No significant differences in clotting time compared to control assays”.
